Common to all, as to type: biochemical, human
In assay [1] the test system is KDM4A. The assay is described as follows: 1H NMR activity assay (time course). The note with it: KDM4A 10 μM, peptide 400 μM, 2OG 400 μM, Fe(II) 100 μM, ascorbate 1 mM, 50 mM ammonium formate pH 7.5, 500 mM NaCl, 700 MHz. How it is done:
The NMR analyses employed a Bruker Avance III 700 MHz spectrometer with an inverse TCI cryoprobe optimised for ^1H observation and were carried out as previously described 6. Samples (KDM4A (10 μM), 2OG (400 μM), H1.4(18–32)K26me3 peptide (400 μM), Fe(II) ammonium sulfate (100 μM) and ascorbate (1 mM) in 50 mM ammonium formate, pH 7.5, 500 mM NaCl in 10% v/v D2O) were prepared in a microcentrifuge tube (total volume = 75 μL), before being transferred to an NMR tube. The samples were then analysed over time using automated routines; each time‐point corresponded to one experiment accumulating 16 transients (89 s total acquisition time per experiment). The solvent resonance was depleted by excitation sculpting using a 180° sinc pulse (duration = 2 ms) 30.
Studies then focused on determining the proficiency of H1.4K26 demethylation by the KDM4 enzymes.

For assay [2], the system named is KDM7A (KDM7A38–480). The assay is described as follows: MALDI-TOF MS demethylation activity assay, KDM7A. Details: key to demethylation activity on methylated H1.4 peptide: 🟢: Indicates that clear demethylation activity was observed; 🟡: Indicates that low level demethylation activity was observed (<10% conversion after 1 h); 🔴: Indicates no activity under the stated conditions (1 μM KDM, 10 μM peptide); 🟡*: *Indicates demethylation activity was only observed with 5 μM KDM. The note with it: peptide as substrate; MALDI-TOF MS; 1 μM KDM, 10 μM peptide, 50 mM HEPES pH 7.5, Fe(II) 10 μM, ascorbate 100 μM, 2OG 200 μM, 1 mM TCEP, 1 h at 37 °C. How it is done: (§1) Recombinant proteins (1 μM) were incubated with peptides (10 μM, sequences are given in Table S1) in 50 mM HEPES, pH 7.5 with addition of Fe(II) ammonium sulfate (10 μM), sodium ascorbate (100 μM) and 2‐oxoglutaric acid (200 μM). Reactions with KDM3A and KDM7A also contained 1 mM tris(2‐carboxyethyl)phosphine hydrochloride. No enzyme reactions were included as negative controls. Reactions were incubated for 1 h at 37 °C before being quenched with 1 : 1 (v/v) methanol. Analysis was carried out by MALDI‐TOF MS (Bruker, Billerica, MA, USA), with demethylation observed as mass shifts of 14 Da.
(§2) The propensity of human JmjC KDMs to catalyse demethylation at H1.4K26 was investigated using recombinant forms of the catalytic domains of representatives of each human JmjC KDM subfamily (KDM2‐7) and fragment peptides (Table S1) 37. Three peptides with identical sequences, corresponding to residues 18–32 of histone H1.4 (H2N‐[…]‐CONH2), but containing either a N ^ε‐tri‐, di‐ or monomethyllysine at K26 were synthesised (Fig. 1B and Table S1). Activity assays monitoring JmjC KDM‐catalysed demethylation of the peptides were then carried out; samples were prepared containing each peptide, 2‐oxoglutarate (2OG), ferrous iron, ascorbate and individual representatives from each JmjC KDM subfamily (KDM2A 38, KDM3A 21, KDM4E 22, KDM5C 39, 40, KDM6B 41, KDM7A 42).
(§3) N ^ε‐Trimethylated H3K4 binds to the plant homeobox domain of KDM7B, targeting the N ^ε‐dimethyllysine at H3K9 to the catalytic domain, and thus promoting demethylation 29, 44. To test whether similar targeting may occur with H1.4, promoting activity at H1.4K26, an H1.4 peptide was synthesised containing di‐N ^ε‐methyllysine at K26 and tri‐N ^ε‐methyllysine at K21 (i.e. at the equivalent position in the sequence to K4 in the H3 peptide, Fig. 1B, Table S1). Monomethylation at H1.4K21 has previously been observed by proteomic mass spectrometry 45. With the aim of enhancing activity, the enzyme concentration was increased from 1 μM to 5 μM, and time course analyses were conducted with both KDM7A and KDM7B, both with the new peptide (H1.4(18–32)K21me3K26me2) and the H1.4 peptides methylated only at K26 (Fig. 2B). […] Thus, it appears unlikely that N ^ε‐trimethylation at H1.4K21 promotes demethylation at H1.4K26 by KDM7B.

In assay [3] the test system is KDM4B (KDM4B1–359). Kind of assay: MALDI-TOF MS demethylation activity assay, KDM4B. Details: key: 🟢: Indicates that clear demethylation activity was observed; 🟡: Indicates that low level demethylation activity was observed (<10% conversion after 1 h); 🔴: Indicates no activity under the stated conditions (1 μM KDM, 10 μM peptide); 🟡*: *Indicates demethylation activity was only observed with 5 μM KDM. The note with it: peptide as substrate, 1 μM KDM, 10 μM peptide, 50 mM HEPES pH 7.5, Fe(II) 10 μM, ascorbate 100 μM, 2OG 200 μM, 1 h at 37 °C. How it is done:
as §1
(§4) Given the activity observed with KDM4E and KDM7A, we decided to investigate the intra‐subfamily conservation of this demethylation activity. The demethylation activity of the other subfamily members (KDM4A‐D and KDM7B) was therefore screened. […] Note that as with H3K9, demethylation of the monomethylated H1.4K26 peptide was only observed with KDM4E, under the stated conditions 24.

In assay [4] the test system is KDM6B (KDM6B1141–1590). The assay is described as follows: MALDI-TOF MS demethylation activity assay, KDM6B. Set-up: key: 🟢: Indicates that clear demethylation activity was observed; 🟡: Indicates that low level demethylation activity was observed (<10% conversion after 1 h); 🔴: Indicates no activity under the stated conditions (1 μM KDM, 10 μM peptide); 🟡*: *Indicates demethylation activity was only observed with 5 μM KDM. The conditions noted are these: peptide as substrate, 1 μM KDM, 10 μM peptide, 50 mM HEPES pH 7.5, Fe(II) 10 μM, ascorbate 100 μM, 2OG 200 μM, 1 h at 37 °C. On the procedure: as §1, §2

For assay [5], the system named is KDM7B (PHF8; KDM7B1–447). The assay is described as follows: MALDI-TOF MS demethylation activity assay, KDM7B (PHF8). Details: key to demethylation activity on methylated H1.4 peptide: 🟢: Indicates that clear demethylation activity was observed; 🟡: Indicates that low level demethylation activity was observed (<10% conversion after 1 h); 🔴: Indicates no activity under the stated conditions (1 μM KDM, 10 μM peptide); 🟡*: *Indicates demethylation activity was only observed with 5 μM KDM. The note with it: peptide as substrate; MALDI-TOF MS; 1 μM KDM (* = only with 5 μM KDM), 10 μM peptide, 50 mM HEPES pH 7.5, Fe(II) 10 μM, ascorbate 100 μM, 2OG 200 μM, 1 h at 37 °C. On the procedure:
as §1, §4, §3

Assay [6] concerns KDM4D (KDM4D1–359). Kind of assay: MALDI-TOF MS demethylation activity assay, KDM4D. Set-up: key: 🟢: Indicates that clear demethylation activity was observed; 🟡: Indicates that low level demethylation activity was observed (<10% conversion after 1 h); 🔴: Indicates no activity under the stated conditions (1 μM KDM, 10 μM peptide); 🟡*: *Indicates demethylation activity was only observed with 5 μM KDM. The conditions noted are these: peptide as substrate, 1 μM KDM, 10 μM peptide, 50 mM HEPES pH 7.5, Fe(II) 10 μM, ascorbate 100 μM, 2OG 200 μM, 1 h at 37 °C. How it is done: as §1, §4

Square brackets hold non-standard residues; d marks the D form. Ends that are not written are not given here. Lys(Me3) = C[N+](C)(C)CCCC[C@H](N)C(=O)O

On to “TPVKKKAR[Lys(Me3)]SAGAAK [H1.4(18–32)K26me3, peptide of residues 18–32 of histone H1.4 with N ε-trimethyllysine at K26]”, for which the “demethylation of the Kme3 residue by 1H NMR (result in words)” value in assay [1] is given as “time‐dependent demethylation”. Moreover, the “demethylation activity on methylated H1.4 peptide” value in assay [2] is recorded as “🔴”; in assay [3] it was “🟢”; in assay [4] it was “🔴”; in assay [5], “🔴”; in assay [6], “🟢”.

The record behind these values is article PMC6220849, “Mechanistic and structural studies of KDM‐catalysed demethylation of histone 1 isotype 4 at lysine 26” (Febs Letters, 2018).
